Reference: US6358885B1, “Substituted phenylheterocyclic herbicides” (Mississippi State University, priority 1992, dated 2002)

Experiments:
barnyardgrass = assay: Test B preemergence/postemergence greenhouse plant response rating 0 to 10; type: in vivo, Echinochloa crus-galli; details: for Plant response rating, Barnyardgrass: 0 to 10 scale
Outline: (§1)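 Test chemicals, dissolved in a non-phytotoxic solvent, were applied to soil at planting and, at the same time, over foliage of seedlings at the one to four leaf stage.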

cocklebur = assay: as above; type: in vivo, Xanthium pensylvanicum; details: for Plant response rating, Cocklebur: 0 to 10 scale
Outline: as §1

cotton = assay: as above; type: in vivo, Gossypium hirsutum; details: for Plant response rating, Cotton: 0 to 10 scale
Outline: as §1

morningglory = assay: as above; type: in vivo, Ipomoea hederacea; details: 0 to 10 scale
Outline: as §1

rice [1] = assay: as above; type: in vivo, Oryza sativa; details: 0 to 10 scale
Outline: as §1

sorghum = assay: as above; type: in vivo, Sorghum bicolor; details: 0 to 10 scale
Outline: as §1

wheat = assay: as above; type: in vivo, Triticum aestivum; details: 0 to 10 scale
Outline: as §1

wild oat = assay: as above; type: in vivo, Avena fatua; details: POSTEMERGENCE, 0 to 10 scale
Outline: as §1

blackgrass = assay: Test C preemergence/postemergence greenhouse plant response rating 0 to 100; type: in vivo, Alopecurus myosuroides; details: POSTEMERGENCE; for Plant response rating, Blackgrass: 0 to 100 scale
Outline: (§2)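 Compounds in non-phytotoxic solvent went onto sandy loam before emergence (seeded one day earlier) or onto plants at the one-to-four leaf stage. Duck salad was treated via flood water (~2.5 cm, maintained) over silt loam.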

crabgrass = assay: as above; type: in vivo, Digitaria sanguinalis; details: POSTEMERGENCE; for Plant response rating, Crabgrass: 0 to 100 scale
Outline: as §2

rape = assay: as above; type: in vivo, Brassica napus; details: POSTEMERGENCE; for Plant response rating, Rape: 0 to 100 scale
Outline: as §2

rice [2] = assay: Test C flood test plant response rating 0 to 100; type: in vivo, Oryza sativa; details: for Plant response rating Rice Japonica: flood test species listed under POSTEMERGENCE, 0 to 100 scale
Outline: (§3)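 Compounds in non-phytotoxic solvent applied preemergence to sandy loam one day after planting, postemergence at the 1–4 leaf stage, or to ~2.5 cm floodwater over silt loam.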

umbrella sedge = assay: Test C flood test plant response rating 0 to 100; type: in vivo, Cyperus difformis; details: for Plant response rating Umbrella sedge: flood test species listed under POSTEMERGENCE, 0 to 100 scale
Outline: as §3

sandbur = assay: Test G preemergence/postemergence greenhouse plant response rating 0 to 100; type: in vivo, Cenchrus echinatus; details: 0 to 100 scale
Excerpt: Seeds, rhizomes, or plant parts of alfalfa (Medicago ativa), annual bluegrass (Poa annua), bermudagrass (Cynodon dactylon), broadleaf signalgrass (Brachiaria plantaginea), common purslane (Portulaca oleracea), common ragweed (Ambrosia elatior), […] (Paspalum dilatatum), goosegrass (Eleusine indica), guineagrass (Panicum maximum), […] exaltata), johnsongrass (Sorghum halepense), large crabgrass (Digitaria sanguinalis), peanut (Arachis hypoagaea), pitted morningglory (Ipomoea lacunosa), purple nutsedge (Cyperus rotundus), sandbur (Cenchrus echinatus), smooth crabgrass (Digitaria ischaemum) and yellow nutsedge (Cyperus esculentus) were planted into greenhouse pots containing greenhouse planting medium. Each pot contained only one plant species. The test compound was dissolved in a non-phytotoxic solvent and applied preemergence and/or postemergence to the plants. Preemergence applications were made within one day of planting the seeds or plant parts. Postemergence applications were applied when the plants were in the two to four leaf stage (three to twenty cm). Test chemicals were dissolved in a non-phytotoxic solvent and applied preemergence and postemergence to the plants. Untreated control plants and treated plants were placed in the greenhouse and visually evaluated for injury at 13 to 21 days after herbicide application. […] A dash (-) response indicates no test result.

[3] = POSTEMERGENCE section, flood test, Rate 4 g/ha
[4] = Rate 16 g/ha, under POSTEMERGENCE head (flood test species)

SMILES: CC(C)COc1cc(-c2nn3c(c2Cl)CCCC3)c(F)cc1Cl [Compound 30]
- Plant response rating (0 to 10 scale), Barnyardgrass (barnyardgrass; POSTEMERGENCE, Rate 50 g/ha): 6
- Plant response rating, Barnyardgrass (barnyardgrass; POSTEMERGENCE, Rate 200 g/ha): 10
- Plant response rating, Barnyardgrass (barnyardgrass; PREEMERGENCE, Rate 50 g/ha): 2
- Plant response rating, Barnyardgrass (barnyardgrass; Rate 200 g/ha, PREEMERGENCE): 6
- Plant response rating (0 to 10 scale), Cocklebur (cocklebur; POSTEMERGENCE, Rate 50 g/ha): 7
- Plant response rating, Cocklebur (cocklebur; POSTEMERGENCE, Rate 200 g/ha): 10
- Plant response rating, Cocklebur (cocklebur; PREEMERGENCE, Rate 50 g/ha): 0
- Plant response rating, Cocklebur (cocklebur; Rate 200 g/ha, PREEMERGENCE): 4
- Plant response rating (0 to 10 scale), Cotton (cotton; POSTEMERGENCE, Rate 50 g/ha): 10
- Plant response rating, Cotton (cotton; POSTEMERGENCE, Rate 200 g/ha): 10
- Plant response rating, Cotton (cotton; PREEMERGENCE, Rate 50 g/ha): 2
- Plant response rating, Cotton (cotton; Rate 200 g/ha, PREEMERGENCE): 6
- Plant response rating, Morningglory (morningglory; POSTEMERGENCE, Rate 50 g/ha): 8
- Plant response rating, Morningglory (morningglory; PREEMERGENCE, Rate 50 g/ha): 2
- Plant response rating, Morningglory (morningglory; Rate 200 g/ha, POSTEMERGENCE): 9
- Plant response rating, Morningglory (morningglory; Rate 200 g/ha, PREEMERGENCE): 5
- Plant response rating, Rice (rice [1]; POSTEMERGENCE, Rate 50 g/ha): 5
- Plant response rating, Rice (rice [1]; PREEMERGENCE, Rate 50 g/ha): 0
- Plant response rating, Rice (rice [1]; Rate 200 g/ha, POSTEMERGENCE): 5
- Plant response rating, Rice (rice [1]; Rate 200 g/ha, PREEMERGENCE): 2
- Plant response rating, Sorghum (sorghum; POSTEMERGENCE, Rate 50 g/ha): 4
- Plant response rating, Sorghum (sorghum; PREEMERGENCE, Rate 50 g/ha): 0
- Plant response rating, Sorghum (sorghum; Rate 200 g/ha, POSTEMERGENCE): 6
- Plant response rating, Sorghum (sorghum; Rate 200 g/ha, PREEMERGENCE): 0
- Plant response rating, Wheat (wheat; POSTEMERGENCE, Rate 50 g/ha): 4
- Plant response rating, Wheat (wheat; PREEMERGENCE, Rate 50 g/ha): 0
- Plant response rating, Wheat (wheat; Rate 200 g/ha, POSTEMERGENCE): 5
- Plant response rating, Wheat (wheat; Rate 200 g/ha, PREEMERGENCE): 2
- Plant response rating, Wild oat (wild oat; Rate 50 g/ha): 5
- Plant response rating, Wild oat (wild oat; Rate 200 g/ha): 6
- Plant response rating, Blackgrass (blackgrass; 62 g/ha): 60
- Plant response rating, Blackgrass (blackgrass; 250 g/ha): 80
- Plant response rating (0 to 100), Blackgrass (blackgrass; Rate 4 g/ha): 10
- Plant response rating (0 to 100), Blackgrass (blackgrass; Rate 16 g/ha): 20
- Plant response rating, Crabgrass (crabgrass; 62 g/ha): 0
- Plant response rating, Crabgrass (crabgrass; 250 g/ha): 20
- Plant response rating (0 to 100), Crabgrass (crabgrass; Rate 4 g/ha): 0
- Plant response rating (0 to 100), Crabgrass (crabgrass; Rate 16 g/ha): 0
- Plant response rating, Rape (rape; 62 g/ha): 100
- Plant response rating, Rape (rape; 250 g/ha): 100
- Plant response rating (0 to 100), Rape (rape; Rate 4 g/ha): 50
- Plant response rating (0 to 100), Rape (rape; Rate 16 g/ha): 80
- Plant response rating (0 to 100), Rice Japonica (rice [2]; [3]): 35
- Plant response rating (0 to 100), Rice Japonica (rice [2]; [4]): 40
- Plant response rating Rice Japonica (rice [2]; 62 g/ha): 50
- Plant response rating Rice Japonica (rice [2]; 250 g/ha): 60
- Plant response rating (0 to 100), Umbrella sedge (umbrella sedge; [3]): 10
- Plant response rating (0 to 100), Umbrella sedge (umbrella sedge; [4]): 25
- Plant response rating Umbrella sedge (umbrella sedge; 62 g/ha): 30
- Plant response rating Umbrella sedge (umbrella sedge; 250 g/ha): 80
- Plant response rating, S. Sandbur (sandbur; POSTEMERGENCE, Rate 125 g/ha): 0
- Plant response rating, S. Sandbur (sandbur; POSTEMERGENCE, Rate 250 g/ha): 0
- Plant response rating, S. Sandbur (sandbur; PREEMERGENCE, Rate 125 g/ha): 0
- Plant response rating, S. Sandbur (sandbur; PREEMERGENCE, Rate 250 g/ha): 0
